Consider 14 compounds from PMC9919615, “Generation of Aurachin Derivatives by Whole-Cell Biotransformation and Evaluation of Their Antiprotozoal Properties” (Molecules, 2023).

One experiment deals with T. cruzi Tulahuen C4. Kind of experiment: Antitrypanosomal assay T. cruzi (beta-galactosidase reporter strain on rat skeletal myoblasts). The format is cell-based, Trypanosoma cruzi. The note with it: intracellular amastigotes, 4 days on rat skeletal myoblasts. How it is done: (§1) Serial dilution assays with 11 dilution steps in 96-well plates were used in order to determine the IC50 values of the generated aurachin D analogs against P. falciparum NF54 (erythrocytic stages), T. brucei rhodesiense STIB 900 (bloodstream forms), T. cruzi Tulahuen C4 (intracellular amastigotes) and L. donovani MHOM-ET-67/L82 (axenic amastigotes). Potential cytotoxic effects were evaluated with L6 myoblast cells (Table 2).
Activity against Trypanosoma cruzi was evaluated according to a procedure described by Buckner and coworkers. The strain Tulahuen C4 of T. cruzi, which had been transfected with the β-galactosidase lacZ gene, was cultivated for 4 days on rat skeletal myoblasts (5% CO2, 37 °C) in the presence of drug. For measurement of the IC50, the substrate chlorophenol red-β-D-galactopyranoside was added. The color reaction that developed during the following 2–4 h was quantified photometrically employing an ELISA reader. Benznidazole was included in each test series as positive control.

The test system of the next experiment is P. falciparum NF54. Kind of experiment: Antiplasmodial assay (3H-hypoxanthine incorporation). The format is cell-based, Plasmodium falciparum. The note with it: erythrocytic stages, 48 h drug exposure + 24 h with 3H-hypoxanthine. How it is done: as §1
Antiplasmodial activity was determined against the NF54 strain of Plasmodium falciparum using a modified ^3H-hypoxanthine incorporation assay. Briefly, infected erythrocytes were exposed to serial drug dilutions in microtiter plates for 48 h at 37 °C in a gas mixture with reduced oxygen and elevated carbon dioxide concentrations. ^3H hypoxanthine was added to each well, and after further incubation for 24 h, the wells were harvested on glass fiber filters and counted in a liquid scintillation counter. From the sigmoidal inhibition curve, the IC50 value was calculated. Chloroquine was used as positive control in each test series.

Experiment [1] concerns T. brucei rhodesiense STIB 900. The experiment in a line: Antitrypanosomal assay T. brucei rhodesiense (resazurin viability). In kind it is cell-based, Trypanosoma brucei rhodesiense. The note with it: read-out: IC50 T. brucei rhodesiense STIB 900. As to the method:
as §1
Activity against Trypanosoma brucei rhodesiense (strain STIB 900) was evaluated according to a previously established protocol. Parasites were grown axenically in culture medium supplemented with horse serum. Following a 3-day exposure to test compounds, the viability of tryptomastigote parasites was quantified using the dye resazurin by monitoring the reductive environment of living cells. Fluorescence development was expressed as percentage of the control, and IC50 values were calculated. Melarsoprol was included as positive control.

Experiment [2] relates to L. donovani MHOM-ET-67/L82. Kind of experiment: Antileishmanial assay (axenic amastigotes, resazurin viability). The format is cell-based, Leishmania donovani. Particulars: 3-day exposure, pH 5.4. As to the method:
Serial dilution assays with 11 dilution steps in 96-well plates were used in order to determine the IC50 values of the generated aurachin D analogs against P. falciparum NF54 (erythrocytic stages), T. brucei rhodesiense STIB 900 (bloodstream forms), T. cruzi Tulahuen C4 (intracellular amastigotes) and L. donovani MHOM-ET-67/L82 (axenic amastigotes). Potential cytotoxic effects were evaluated with L6 myoblast cells (Table 2). Evaluation of antileishmanial activity was carried out with axenically grown amastigotes of Leishmania donovani MHOM-ET-67/L82, as previously described. For this, the amastigotes were cultured at 37 °C and pH 5.4 in SM medium supplemented with 10% heat-inactivated fetal bovine serum under an atmosphere of 5% CO2 in air. Following a 3-day exposure to test compounds, the viability of amastigote parasites was quantified using the dye resazurin by monitoring the reductive environment of living cells. Fluorescence development was expressed as percentage of the control, and IC50 values were calculated. Miltefosine was used as positive control.
A general note: Alamar Blue is a resazurin reagent that responds to reducing activity.

For a further experiment, the system named is Rat Myoblast L6 Cells. Kind of experiment: Cytotoxicity assay with L6 cells (resazurin viability). The format is cell-based. How it is done:
as §1
Cytotoxicity was tested with L6 cells (ATCC CRL-1458), a […] cell line derived from rat skeletal myoblasts, as previously described. For this, L6 cells were grown in culture medium supplemented with heat-inactivated fetal bovine serum under an atmosphere of 5% CO2 in air. Following a 3-day exposure to test compounds, the viability of L6 cells was quantified using the dye resazurin by monitoring the reductive environment of living cells. Fluorescence development was expressed as percentage of the control, and IC50 values were calculated. Podophyllotoxin was used as reference.

Setting [3] is: Trypanosoma cruzi, TULAHUEN, Myoblast, 96 h.
Where [4] appears, read: Plasmodium falciparum, NF54, 72 h.
Setting [5] is: Trypanosoma brucei, 72 h, bloodstream forms, 3-day exposure.
[6] abbreviates: Rattus norvegicus, L6, 72 h, cytotoxicity, 3-day exposure, read-out: IC50 Rat Myoblast L6 Cells.
Where [7] appears, read: bloodstream forms, 3-day exposure.
Setting [8] is: cytotoxicity, 3-day exposure, read-out: IC50 Rat Myoblast L6 Cells.

Where two headings read alike, the source gives them in different places.

Take `O=C(Cn1ccnc1[N+](=O)[O-])NCc1ccccc1` [Benznidazole, reference compound]: the half-maximal inhibitory concentration (IC50) – broadly, the concentration that gives 50% inhibition – with T. cruzi Tulahuen C4 (setting [3]) was found to be 2.5 µM.
Take `CC(C)=CCC/C(C)=C/CC/C(C)=C/Cc1c(C)[nH]c2ccccc2c1=O` [Compound 1, aurachin D]: the IC50 with P. falciparum NF54 (setting [4]) was 0.012 µM; in experiment [1] (setting [5]), 4.5 µM; with T. cruzi Tulahuen C4 (setting [3]) it was 1.3 µM; in experiment [2] (Leishmania donovani, 72 h), 0.044 µM; with Rat Myoblast L6 Cells (setting [6]) it was 131 µM; with Rat Myoblast L6 Cells (Rattus norvegicus, L6, cytotoxicity, read-out: IC50 rat skeletal myoblasts), 131 µM.
Take `CC(C)=CCC/C(C)=C/CC/C(C)=C/Cc1c[nH]c2ccccc2c1=O` [Compound 2, 2-Desmethyl aurachin D]: the IC50 was 0.006 µM in the experiment with P. falciparum NF54; 9.5 µM in experiment [1] (setting [7]); 2.4 µM in the experiment on T. cruzi Tulahuen C4; 1.5 µM in experiment [2]; 20.4 µM in the experiment with Rat Myoblast L6 Cells (setting [8]).
For the compound `CC(C)=CCC/C(C)=C/CC/C(C)=C/Cc1c(C)[nH]c2ccc(C)cc2c1=O` [Compound 3, 6-Methyl aurachin D], the IC50 in the experiment with P. falciparum NF54 was found to be 0.514 µM; in experiment [1] (setting [7]), 43.2 µM; in the experiment with T. cruzi Tulahuen C4, 7.6 µM; in experiment [2], 4.3 µM; in the experiment with Rat Myoblast L6 Cells (setting [8]), 18.6 µM.
On to `CC(C)=CCC/C(C)=C/CC/C(C)=C/Cc1c(C)[nH]c2cc(C)ccc2c1=O` [Compound 4, 7-Methyl aurachin D], for which the IC50 with P. falciparum NF54 (setting [4]) is 0.007 µM; in experiment [1] (setting [5]), 164 µM; in the experiment with T. cruzi Tulahuen C4 (setting [3]) it was 45.7 µM; in experiment [2] (Leishmania donovani, 72 h), 9.1 µM; in the experiment with Rat Myoblast L6 Cells (setting [6]), 65.3 µM.
On to `COc1ccc2[nH]c(C)c(C/C=C(\C)CC/C=C(\C)CCC=C(C)C)c(=O)c2c1` [Compound 5, 6-Methoxy aurachin D], for which the IC50 is 0.866 µM in the experiment on P. falciparum NF54; 40.3 µM in experiment [1] (setting [7]); 19.3 µM in the experiment with T. cruzi Tulahuen C4; 7.3 µM in experiment [2]; 118 µM in the experiment with Rat Myoblast L6 Cells (setting [8]).
As for `COc1ccc2c(=O)c(C/C=C(\C)CC/C=C(\C)CCC=C(C)C)c(C)[nH]c2c1` [Compound 6, 7-Methoxy aurachin D], the IC50 in the experiment on P. falciparum NF54 stood at 0.089 µM; in experiment [1] (setting [7]) it was 44.8 µM; with T. cruzi Tulahuen C4, 21.9 µM; in experiment [2], 17.1 µM; in the experiment with Rat Myoblast L6 Cells (setting [8]), 80.8 µM.
For `CC(C)=CCC/C(C)=C/CC/C(C)=C/Cc1c(C)[nH]c2ccc(F)cc2c1=O` [Compound 7, 6-Fluoro aurachin D], in that order: 0.061 µM, 37.2 µM, 1.8 µM, 0.617 µM and 126 µM.
For `CC(C)=CCC/C(C)=C/CC/C(C)=C/Cc1c(C)[nH]c2ccc(Cl)cc2c1=O` [Compound 8, 6-Chloro aurachin D], in that order: 0.021 µM, 37.4 µM, 11.2 µM, 6.2 µM and 118 µM.
In the case of `CC(C)=CCC/C(C)=C/CC/C(C)=C/Cc1c(C)[nH]c2cc(Cl)ccc2c1=O` [Compound 9, 7-Chloro aurachin D], the IC50 was 0.07 µM with P. falciparum NF54; 105 µM in experiment [1] (setting [7]); 41.8 µM in the experiment with T. cruzi Tulahuen C4; 9.2 µM in experiment [2]; 54.7 µM with Rat Myoblast L6 Cells (setting [8]).
For `CC(C)=CCC/C(C)=C/CC/C(C)=C/Cc1c(C)[nH]c2ccc(Br)cc2c1=O` [Compound 10, 6-Bromo aurachin D], in that order: 0.119 µM, 40.2 µM, 22.6 µM, 13.9 µM and 108 µM.
With `Nc1nc(N)nc(Nc2ccc([As]3SCC(CO)S3)cc2)n1` (stereo not shown) [Melarsoprol, reference compound], the IC50 in experiment [1] (Trypanosoma brucei, 72 h) was 0.013 µM.
As for `CCCCCCCCCCCCCCCCOP(=O)([O-])OCC[N+](C)(C)C` [Miltefosine, reference compound], the half-maximal inhibitory concentration (IC50) in experiment [2] (Leishmania donovani, 72 h) came out at 0.732 µM.
For the compound `COc1cc([C@@H]2c3cc4c(cc3[C@H](O)[C@H]3COC(=O)[C@H]23)OCO4)cc(OC)c1OC` [Podophyllotoxin, reference compound], in the experiment with Rat Myoblast L6 Cells (Rattus norvegicus, L6, 72 h, read-out: IC50 Rat Myoblast L6 Cells), the IC50 is 0.022 µM.
